Experimental data taken from paper PMC10614203, “Synthesis, Structure–Activity Relationships, Radiofluorination, and Biological Evaluation of [^18F]RM365, a Novel Radioligand for Imaging the Human Cannabinoid Receptor Type 2 (CB2R) in the Brain with PET” (Journal of Medicinal Chemistry, 2023).
“And” between values parts separate entries of the source, which are not always exact repeats. Equal entries are not always repeated. “Also recorded” adds a separate entry of the source. Where two headings read alike, the source gives them in different places.

How the values were obtained:
hCB2R = biological target: T1, hCB2R (Homo sapiens, UniProt P34972); experiment: Competitive radioligand binding assay, displacement of [3H]WIN55212-2 from homogenates of hCB2R-CHO cells; details: for Ki: read-out: CB2R Ki; for CB2R binding affinity, in words: hCB2R, discussion of Table 1
T1 construct: host or cells: CHO cells, stably transfected
Procedure: (§1) The binding affinity of the herein described compounds toward the human CB2R was determined by a competitive radioligand binding assay according to the established in-house protocol using cell homogenates obtained from CHO cells stably transfected with hCB2R (hCB2R-CHO).[53],[73] For compounds binding with high affinity to hCB2R, the affinity toward CB1R was determined as well by radioligand displacement studies performed either with homogenates obtained from the mouse brain or hCB1R-CHO cells.
(§2) The binding affinities toward hCB1R and hCB2R were determined according to a previously published protocol.[22] In brief, membrane preparations obtained from CHO cell lines stably transfected with either human CB1R (hCB1R-CHO; obtained from Euroscreen, Gosselies, Belgium) or human CB2R (hCB2R-CHO; obtained from Paul L. Prather, Department of Pharmacology and Toxicology, College of Medicine, University of Arkansas for Medical Sciences, USA) were incubated with [^3H]SR141716A (1,554 GBq/mmol; PerkinElmer Life and Analytical Sciences, Rodgau, Germany; final concentration ∼2 nM) or [^3H]WIN55212-2 (6,438 GBq/mmol; PerkinElmer Life and Analytical Sciences, Rodgau, Germany; final concentration ∼3 nM) and the respective test compounds at different concentrations (final concentration 10^–5–10^–11 M) diluted from DMSO stock solutions (1% DMSO final concentration) in incubation buffer (50 mM TRIS-HCl, pH 7.4, supplemented with 0.1% bovine serum albumin, 5 mM MgCl2, and 1 mM EDTA) at rt for 90 min.
(§3) The nonspecific binding of the respective radioligand was determined by coincubation with CP55,940 (final concentration 10^–5 M). The normalized values of bound activity (% specific binding) were calculated and plotted vs the logarithm of the concentration of the respective test compound. The IC50 values of the resulting inhibition curves were estimated by nonlinear regression analysis (GraphPad Prism 2.01). To calculate the Ki, the equation of Cheng and Prusoff was used. For homologous competition experiments, Ki = KD.[38]

hCB1R = biological target: T2, hCB1R (Homo sapiens, UniProt P21554); experiment: Radioligand displacement assay, [3H]SR141716A from homogenates of hCB1R-CHO cells; assay type: binding
T2 construct: host or cells: CHO cells, stably transfected
Procedure: as §1, §2, §3

CB2R = details: cited from earlier work
hCB2R(D80N) = biological target: T3, hCB2R(D80N) (Homo sapiens, UniProt P34972, D80N); set-up: method as in earlier work; details: same animal model, previously evaluated; ref 83 ([18F]LU14), 31 ([18F]LU13); cited from earlier work
T3 construct: expressed in transfected cells; host or cells: neurons of the right striatum of male Wistar rats, transduced in vivo with the AAV2/7-CaMKII0.4-intron-hCB2R(D80N) vector

[1] = hCB2R-CHO homogenates, displacement of [3H]WIN55.2212-2
[2] = hCB1R-CHO homogenates, displacement of [3H]SR141716A, read-out: CB1R Ki
[3] = enantiomer obtained by chiral HPLC separation (Scheme 1), hCB2R-CHO, [3H]WIN55.2212-2
[4] = Figure 1, ref 28 (DM102), 29, 30 (RoSMA-18-d6), 31 (LU13), 33 (LUZ5-d8)
[5] = Figure 1, ref 28 (DM102), 29, 30 (RoSMA-18-d6), 31 (LU13), 33 (LUZ5-d8), read-out: KiCB2R

T1 sequence (P34972 whole entry): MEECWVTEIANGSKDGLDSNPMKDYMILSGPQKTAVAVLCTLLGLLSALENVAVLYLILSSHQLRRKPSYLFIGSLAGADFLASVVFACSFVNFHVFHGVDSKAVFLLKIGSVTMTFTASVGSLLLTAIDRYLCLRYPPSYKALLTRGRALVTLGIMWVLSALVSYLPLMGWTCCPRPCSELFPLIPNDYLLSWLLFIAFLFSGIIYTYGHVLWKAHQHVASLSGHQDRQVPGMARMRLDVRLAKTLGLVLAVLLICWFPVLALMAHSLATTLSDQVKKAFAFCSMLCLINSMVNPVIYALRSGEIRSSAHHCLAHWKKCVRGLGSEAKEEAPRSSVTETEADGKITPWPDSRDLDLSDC
T2 sequence (P21554 whole entry): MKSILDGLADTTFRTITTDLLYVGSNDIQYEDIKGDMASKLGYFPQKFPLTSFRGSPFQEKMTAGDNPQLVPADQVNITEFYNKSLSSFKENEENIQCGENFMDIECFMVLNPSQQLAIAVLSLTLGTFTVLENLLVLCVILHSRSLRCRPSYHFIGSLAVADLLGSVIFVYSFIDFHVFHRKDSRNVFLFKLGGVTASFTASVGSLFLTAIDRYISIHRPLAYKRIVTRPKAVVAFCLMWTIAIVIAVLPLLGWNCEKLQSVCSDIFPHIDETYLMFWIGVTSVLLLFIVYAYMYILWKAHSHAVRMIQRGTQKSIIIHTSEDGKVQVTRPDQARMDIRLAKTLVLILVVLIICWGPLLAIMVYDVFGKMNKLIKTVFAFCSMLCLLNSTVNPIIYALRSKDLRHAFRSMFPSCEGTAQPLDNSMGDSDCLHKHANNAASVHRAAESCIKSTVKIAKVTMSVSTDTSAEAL
T3 sequence (P34972 whole entry D80N): as the sequence (P34972 whole entry) above, with D80N counted along it

Compound | Ki (hCB2R; [1]) [nM] | Ki (hCB1R; [2]) [nM] | CB2R binding affinity, in words (hCB2R) | other results
CC1(C)Cc2ccc(C#N)cc2C1NC(=O)c1cc2cc(F)ccc2[nH]1 (racemic) [Compound (±)-6, (rac)-N-(6-Cyano-2,2-dimethyl-2,3-dihydro-1H-inden-1-yl)-5-fluoro-1H-indole-2-carboxamide] | 3 | 842 |  | 
CC1(C)Cc2ccc(C#N)cc2[C@@H]1NC(=O)c1cc2c(F)cccc2[nH]1 [Compound 19A, (R)-N-(6-Cyano-2,2-dimethyl-2,3-dihydro-1H-inden-1-yl)-4-fluoro-1H-indole-2-carboxamide] | 3.41 | > 1000 |  | 
CC1(C)Cc2ccc(C#N)cc2[C@@H]1NC(=O)c1cc2ccc(F)cc2[nH]1 [Compound 19B, (R)-N-(6-Cyano-2,2-dimethyl-2,3-dihydro-1H-inden-1-yl)-6-fluoro-1H-indole-2-carboxamide] | 15.9 | > 1000 |  | 
CC1(C)Cc2ccc(C#N)cc2[C@@H]1NC(=O)c1cc2cc(OCCF)ccc2[nH]1 [Compound 19D, (R)-N-(6-Cyano-2,2-dimethyl-2,3-dihydro-1H-inden-1-yl)-5-(2-fluoroethoxy)-1H-indole-2-carboxamide] | 29.9 ± 3.39 | > 1000 | slightly decreased the affinity | 
CC1(C)Cc2ccc(C#N)cc2[C@@H]1NC(=O)c1cc2cc(OCCCF)ccc2[nH]1 [Compound 19E, (R)-N-(6-Cyano-2,2-dimethyl-2,3-dihydro-1H-inden-1-yl)-5-(3-fluoropropoxy)-1H-indole-2-carboxamide] | 15.6 ± 3.85 | > 100 | slightly decreased the affinity | Ki (hCB1R; supplement, formula strings sheet, read-out: CB1RKi): > 1000 nM
Cc1c(C(=O)N[C@H]2c3cc(C#N)ccc3CC2(C)C)[nH]c2ccc(F)cc12 [Compound 19F, (R)-N-(6-Cyano-2,2-dimethyl-2,3-dihydro-1H-inden-1-yl)-5-fluoro-3-methyl-1H-indole-2-carboxamide] | 336 | > 100 | deleterious effect on the binding affinity | 
CC1(C)Cc2ccc(C#N)cc2[C@@H]1NC(=O)c1nc2cc(F)ccc2[nH]1 [Compound 19G, (R)-N-(6-Cyano-2,2-dimethyl-2,3-dihydro-1H-inden-1-yl)-5-fluoro-1H-benzo[d]imidazole-2-carboxamide] | 7.18 | > 100 | high CB2R affinity | 
CC1(C)Cc2ccc(C#N)cc2[C@@H]1NC(=O)c1cc2cc(F)ccc2s1 [Compound 19H, (R)-N-(6-Cyano-2,2-dimethyl-2,3-dihydro-1H-inden-1-yl)-5-fluorobenzo[b]thiophene-2-carboxamide] | 6.98 ± 3.43 | > 100 | high CB2R affinity | 
CC1(C)Cc2ccc(OCCF)cc2[C@@H]1NC(=O)c1cc2cc(F)ccc2[nH]1 [Compound 21A, (R)-5-Fluoro-N-(6-(2-fluoroethoxy)-2,2-dimethyl-2,3-dihydro-1H-inden-1-yl)-1H-indole-2-carboxamide] | 50 | > 100 | slightly reduced affinity | 
CC1(C)Cc2ccc(OCCCF)cc2[C@@H]1NC(=O)c1cc2cc(F)ccc2[nH]1 [Compound 21B, (R)-5-Fluoro-N-(6-(3-fluoropropoxy)-2,2-dimethyl-2,3-dihydro-1H-inden-1-yl)-1H-indole-2-carboxamide] | 78.1 | > 1000 | slightly reduced affinity | 
CC1(C)Cc2ccc(C(N)=O)cc2[C@@H]1NC(=O)c1cc2cc(F)ccc2[nH]1 [Compound 21C, (R)-N-(6-Carbamoyl-2,2-dimethyl-2,3-dihydro-1H-inden-1-yl)-5-fluoro-1H-indole-2-carboxamide] | > 1000 | > 1000 |  | 
CC12CCC(C1)C(C)(C)C2NC(=O)c1cc2cc(F)ccc2[nH]1 (stereo not shown) [Compound 21D] | > 1000 | > 1000 | loss of CB2R binding | 
O=C(NC12CC3CC(CC(C3)C1)C2)c1cc2cc(F)ccc2[nH]1 [Compound 21E, N-(Adamantan-1-yl)-5-fluoro-1H-indole-2-carboxamide] | > 1000 | > 1000 | loss of CB2R binding | 
CC1(C)Cc2ccc(C#N)cc2C1NC(=O)c1cc2cc(F)ccc2[nH]1 (stereo not drawn) [Compound (+)-6] |  | > 1000 | inactive; also recorded: no binding | Ki (hCB2R; [3]): > 1000 nM
CC1(C)Cc2ccc(C#N)cc2[C@@H]1NC(=O)c1cc2cc(F)ccc2[nH]1 [Compound (–)-6, (R)-N-(6-Cyano-2,2-dimethyl-2,3-dihydro-1H-inden-1-yl)-5-fluoro-1H-indole-2-carboxamide] |  |  | binding affinity in the same range | selectivity over CB1R (factor) (hCB2R; CB2R over CB1R): > 300; Ki (hCB2R; compound obtained by enantioselective synthesis (Scheme 2), hCB2R-CHO, [3H]WIN55.2212-2): 3.53 nM; Ki (hCB2R; [3]): 2.1 nM and 2.19 nM; Ki (hCB1R; compound obtained by enantioselective synthesis (Scheme 2), hCB1R-CHO, [3H]SR141716A, read-out: CB1R Ki): 965 nM; Ki (hCB1R; enantiomer obtained by chiral HPLC separation (Scheme 1), hCB1R-CHO, [3H]SR141716A, read-out: CB1R Ki): 827 nM; Ki (CB2R; reported value, read-out: CB2R Ki): 0.24 nM
CC1(C)C(C(=O)c2cn(CCC[18F])c3ccccc23)C1(C)C [[^18F]DM102] |  |  |  | KiCB1R/KiCB2R (CB2R; [4]): 440; Ki (CB2R; [5]): 7.8 nM
[2H]C([2H])([18F])C([2H])([2H])C([2H])([2H])C([2H])([2H])n1c(=O)c(C(=O)NC23CC4CC(CC(C4)C2)C3)cc2cccnc21 [[^18F]LU13] |  |  |  | TAC peak SUV in target region (hCB2R(D80N)): 3.6; KiCB1R/KiCB2R (CB2R; [4]): > 1000; Ki (CB2R; [5]): 0.6 nM
[2H]C([2H])([18F])C([2H])([2H])C([2H])([2H])OC(=O)C(CC)(CC)NC(=O)c1ccc(N2CC(OC)C2)c(OC[C@H]2C[C@@H]2CO)n1 [[^18F]RoSMA-18-d6] |  |  |  | KiCB1R/KiCB2R (CB2R; [4]): > 10000; Ki (CB2R; [5]): 0.8 nM
(R)-N-(6-Cyano-2,2-dimethyl-2,3-dihydro-1H-inden-1-yl)-6-fluoro-1H-indole-2-carboxamide [Compound 19C] | 6.49 | > 1000 |  | 
